Where two headings read alike, the source gives them in different places.
Columns and labels:
Type in all cases: cell-based
[1] = tested on: bone marrow derived mast cells (BMMC); experiment: BMMC high cell density IgE activation: degranulation (hexosiminidase, histamine), leukotriene (LTC4) and cytokine (TNFalpha, IL-6) assays; settings: Mus musculus, anti-IgE activation
Protocol: After sensitizing, cells are counted, pelleted (1000 rpm, 5-10 minutes), and resuspended at 1-3×10^6 cells/ml in MT buffer. Add 100 ul of cell suspension to each well and 100 ul of compound dilutions. The final vehicle concentration is 0.5% DMSO. Incubate at 37° C. (5% CO2) for 1 hour. After 1 hour of compound treatment, stimulate cells with 6× stimulus (60 ng/ml DNP-BSA). Mix wells with the cells and allow plates to incubate at 37° C. (5% CO2) for one hour. After 1 hour incubation, pellet cells (10 minutes, 1000 RPM) and collect 200 ul per well of the supernatant, being careful not to disturb pellet, and transfer to a clean tube or 96-well plate. Place the supernatant plate on ice. During the 4-5 hour step (see next) perform the hexosiminidase assay. Resuspend cell pellet in 240 ul WEI-conditioned media containing 0.5% DMSO and corresponding concentration of compound. Incubate BMMC cells for 4-5 hours at 37° C. (5% CO2). After incubation, pellet cells (1000 RPM, 10 minutes) and collect 225 ul per well and place in −80° C. until ready to perform ELISAS. ELISAS are performed on appropriately diluted samples (determined empirically for each donor cell population so that the sample measurement falls within the standard curve) following the supplier's instructions.
Add 50 uL of BMMC cell supernatant (see above) to the hexoseaminidase substrate, place at 37° C. for 30 minutes and read the plate at 5, 10, 15, and 30 minutes on a spectrophotometer.

[2] = tested on: cultured human mast cells (CHMC); experiment: CHMC low cell density IgE activation: tryptase and LTC4 assays; settings: Homo sapiens, Mast cell, Low Density CHMC, anti-IgE activation
Procedure, shortened: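 Degranulation measured after 30 min anti-IgE challenge at 37° C of CHMC plated at 1000-1500 cells/well following 1 h preincubation. Readouts: LTC4 by ELISA on donor-specific diluted supernatants, and tryptase activity from a 30 min room-temperature substrate reaction.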

[3] = tested on: cultured human mast cells (CHMC); experiment: CHMC low cell density ionomycin activation: tryptase assay; settings: Homo sapiens, Mast cell, Low Density CHMC, ionomycin activation, tryptase readout; read-out: CHMC Ionomycin Tryptase
[4] = tested on: cultured human mast cells (CHMC); experiment: CHMC high cell density IgE activation: degranulation (hexos, tryptase, histamine), leukotriene (LTC4) and cytokine (TNFalpha, IL-13) assays; settings: anti-IgE activation
Protocol: After sensitizing, cells are counted, pelleted (1000 rpm, 5-10 minutes), and resuspended at 1-2×10^6 cells/ml in MT buffer. Add 100 ul of cell suspension to each well and 100 ul of compound dilutions. The final vehicle concentration is 0.5% DMSO. Incubate at 37° C. (5% CO2) for 1 hour. After 1 hour of compound treatment, stimulate cells with 6× anti-IgE. Mix wells with the cells and allow plates to incubate at 37° C. (5% CO2) for one hour. After 1 hour incubation, pellet cells (10 minutes, 1000 RPM) and collect 200 ul per well of the supernatant, being careful not to disturb pellet. Place the supernatant plate on ice. During the 7-hour step (see next) perform tryptase assay on supernatant that had been diluted 1:500. Resuspend cell pellet in 240 ul of CM media containing 0.5% DMSO and corresponding concentration of compound. Incubate CHMC cells for 7 hours at 37° C. (5% CO2). After incubation, pellet cells (1000 RPM, 10 minutes) and collect 225 ul per well and place in −80° C. until ready to perform ELISAS. ELISAS are performed on appropriately diluted samples (determined empirically for each donor cell population so that the sample measurement falls within the standard curve) following the supplier's instructions.

[5] = IL-6 release, read-out: BMMC anti-IgE IL-6 IC50
[6] = LTC4 release, read-out: BMMC anti-IgE LTC4 IC50
[7] = TNF-alpha release, read-out: BMMC anti-IgE TNF-alpha IC50
[8] = hexosaminidase release, read-out: BMMC anti-IgE hexos IC50
[9] = histamine release, read-out: BMMC anti-IgE histamine IC50
[10] = hexosaminidase readout, read-out: CHMC anti-IgE Hexos.
[11] = tryptase readout, read-out: CHMC anti-IgE Tryptase
[12] = LTC4 readout, read-out: CHMC anti-IgE LTC4
[13] = LTC4, read-out: CHMC high density LTC4
[14] = TNF-alpha, read-out: CHMC high density TNF-alpha
[15] = hexosaminidase release, read-out: CHMC high density hexos
[16] = histamine release, read-out: CHMC high density histamine
[17] = tryptase release, read-out: CHMC high density tryptase
[18] = IL-13, read-out: CHMC high density IL-13

| Compound | IC50 [1, 5] [µM] | IC50 [1, 6] [µM] | IC50 [1, 7] [µM] | IC50 [1, 8] [µM] | IC50 [1, 9] [µM] | IC50 [2, 10] [µM] | IC50 [2, 11] [µM] | IC50 [3] [µM] | IC50 [2, 12] [µM] | IC50 [4, 13] [µM] | IC50 [4, 14] [µM] | IC50 [4, 15] [µM] | IC50 [4, 16] [µM] | IC50 [4, 17] [µM] | IC50 [4, 18] [µM] |
| --- | --- | --- | --- | --- | --- | --- | --- | --- | --- | --- | --- | --- | --- | --- | --- |
| O=C1COc2ccc(Nc3ncc(F)c(Nc4cccc(O)c4)n3)cc2N1 [Compound R909238, N2-(1,4-Benzoxazin-3-on-6-yl)-5-fluoro-N4-(3-hydroxyphenyl)-2,4-pyrimidinediamine] | < 0.22 | 0.521 | 0.432 | < 0.22 | < 0.22 |  |  |  |  |  |  |  |  |  |  |
| CCc1ccc(Nc2ncc(F)c(Nc3ccc4c(c3)OCCO4)n2)cc1 [Compound R926237, N4-(3,4-Ethylenedioxyphenyl)-N2-(4-ethylphenyl)-5-fluoro-2,4-pyrimidinediamine] |  |  |  | 1.9 |  |  | 1.21 | 6.2 |  |  |  |  |  |  |  |
| CNC(=O)c1cc2cc(Nc3ncc(F)c(Nc4ccc(C(C)(C)C)cc4)n3)ccc2o1 [Compound R926494, N4-(4-tert-Butylphenyl)-5-fluoro-N2-[2-(N-methylamino)carbonylbenzofuran-5-yl]-2,4-pyrimidinediamine] |  |  |  |  |  |  | 0.313 | > 10 | 0.078 | 0.326 | > 10 | 0.64 | > 10 | > 2 |  |
| COC(=O)c1cc2cc(Nc3ncc(F)c(Nc4cccc(O)c4)n3)ccc2o1 [Compound R926614, 5-Fluoro-N4-(3-hydroxyphenyl)-N2-(2-methoxycarbonylbenzofuran-5-yl)-2,4-pyrimidinediamine] |  |  |  |  |  |  | 0.228 | > 10 |  |  | > 10 | > 10 |  | > 10 | 6.44 |
| OCc1cc2cc(Nc3ncc(F)c(Nc4cccc(O)c4)n3)ccc2[nH]1 [Compound R926700, 5-Fluoro-N4-(3-hydroxyphenyl)-N2-[2-(hydroxymethyl)-(1H)-indol-5-yl]-2,4-pyrimidinediamine] |  |  |  |  |  |  |  | > 10 |  | < 1.1 | < 1.1 | < 1.1 | < 1.1 | < 1.1 | 2.05 |
| CC(C)Oc1ccc(Nc2nc(Nc3ccc4oc(CO)cc4c3)ncc2F)cc1 [Compound R926705, 5-Fluoro-N2-[2-(hydroxymethyl)benzofuran-5-yl]-N4-[4-(isopropoxy)phenyl]-2,4-pyrimidinediamine] |  |  |  |  |  |  | 0.263 | > 10 | 0.533 | 0.494 | > 10 | 1.01 | 0.641 | 1.26 |  |
| COC(=O)C1Cc2cc(Nc3ncc(F)c(Nc4ccc(OC(C)C)cc4)n3)ccc2O1 (stereo not shown) [Compound R926706, 5-Fluoro-N2-(2,3-dihydro-2-(methoxycarbonyl)benzofuran-5-yl)-N4-(4-isopropoxyphenyl)-2,4-pyrimidinediamine] |  |  |  |  |  |  | 0.07 | 2.41 | 0.078 | 1.49 | > 10 | > 2 | > 10 | > 10 |  |
| OCc1cc2cc(Nc3ncc(F)c(Nc4cccc(O)c4)n3)ccc2o1 [Compound R926707, 5-Fluoro-N2-[2-(hydroxymethyl)benzofuran-5-yl]-N4-(3-hydroxyphenyl)-2,4-pyrimidinediamine] | < 0.056 | 0.39 | 0.088 | < 0.056 | < 0.056 |  | 0.214 | > 10 |  |  |  |  |  |  |  |

Next, values leading:

| IC50 [1, 5] [µM] | IC50 [1, 6] [µM] | IC50 [1, 7] [µM] | IC50 [1, 8] [µM] | IC50 [1, 9] [µM] | IC50 [2, 10] [µM] | IC50 [2, 11] [µM] | IC50 [3] [µM] | IC50 [2, 12] [µM] | IC50 [4, 13] [µM] | IC50 [4, 14] [µM] | IC50 [4, 15] [µM] | IC50 [4, 16] [µM] | IC50 [4, 17] [µM] | IC50 [4, 18] [µM] | Compound |
| --- | --- | --- | --- | --- | --- | --- | --- | --- | --- | --- | --- | --- | --- | --- | --- |
|  |  |  | > 10 |  | > 10 |  |  |  |  |  |  |  |  |  | CCOC(=O)c1cccc(Nc2ncc(F)c(Nc3cccc(C(=O)OCC)c3)n2)c1 [Compound R926228, N2,N4-Bis(3-ethoxycarbonylphenyl)-5-fluoro-2,4-pyrimidinediamine] |
|  |  |  | > 10 |  | > 10 |  |  |  |  |  |  |  |  |  | CCc1ccc(Nc2ncc(F)c(Nc3ccc(CC)cc3)n2)cc1 [Compound R926234, N2,N4-Bis(4-ethylphenyl)-5-fluoro-2,4-pyrimidinediamine] |
|  |  |  |  |  |  | 0.571 | > 10 |  | 0.414 | 0.622 | 0.429 | 0.809 | 0.533 |  | CNC(=O)c1cc2cc(Nc3ncc(F)c(Nc4ccc5c(c4)OCCO5)n3)ccc2o1 [Compound R926496, N4-(3,4-Ethylenedioxyphenyl)-5-fluoro-N2-[2-(N-methylamino)carbonylbenzofuran-5-yl]-2,4-pyrimidinediamine] |
| < 0.22 | 0.995 | 0.614 | < 0.22 | 0.515 |  | 0.209 | > 10 |  |  |  |  |  |  |  | O=C(NCCO)c1cc2cc(Nc3ncc(F)c(Nc4ccc5c(c4)OCCO5)n3)ccc2o1 [Compound R926498, N4-(3,4-Ethylenedioxyphenyl)-5-fluoro-N2-[2-(N-2-hydroxyethylamino)carbonylbenzofuran-5-yl]-2,4-pyrimidinediamine] |
|  |  |  |  |  |  | 0.564 | > 10 |  | > 10 | > 10 | > 2 | > 10 | > 10 |  | COC(=O)c1cc2cc(Nc3ncc(F)c(Nc4ccc(OC(C)C)cc4)n3)ccc2o1 [Compound R926704, 5-Fluoro-N2-(2-methoxycarbonylbenzofuran-5-yl)-N4-(4-isopropoxyphenyl)-2,4-pyrimidinediamine] |
| < 0.22 | 0.876 | 0.484 | < 0.22 | 0.317 |  | 0.202 | > 10 |  |  |  |  |  |  |  | CC(C)Oc1ccc(Nc2nc(Nc3ccc(OCCO)cc3)ncc2F)cc1 [Compound R935160, 5-Fluoro-N2-[4-(2-hydroxyethoxy)phenyl]-N4-(4-isopropoxyphenyl)-2,4-pyrimidinediamine] |
|  |  |  |  |  |  | 0.268 | 7.3 |  | < 1.1 | 3.19 | < 1.1 | 1.18 | < 1.1 | 3.01 | Cc1cc(Nc2ncc(F)c(Nc3cc(C)c(O)c(Cl)c3)n2)cc(Cl)c1O [Compound R940216, N2,N4-Bis-(3-chloro-4-hydroxy-5-methylphenyl)-5-fluoro-2,4-pyrimidinediamine] |
|  |  |  |  |  |  | 0.31 | > 10 |  | 0.201 | 1.06 | 0.567 | 0.627 | 0.618 | 0.798 | Nc1cc(Cl)cc(Nc2ncc(F)c(Nc3cc(N)cc(Cl)c3)n2)c1 [Compound R950141, N2,N4-Bis(3-amino-5-chlorophenyl)-5-fluoro-2,4-pyrimidinediamine] |
